Measured values taken from US12077503B2, “Substituted cyclic amides and their use as herbicides” (FMC CORPORATION, priority 2015, dated 2024).

What was measured:
Assay in all cases: Test G Pre-Emergence Protocol
Format in all cases: in vivo
[1] = tested on: barnyardgrass (Echinochloa crus-galli); conditions: Echinochloa crus-galli, pre-emergence, 312 h, evaluated after 13 days; for pest or weed control at 15.625 g/ha: 15.625 g ai/ha, read-out: Barnyard grass damage rating (100=total damage to plant; 0=no damage to plant); for pest or weed control at 62.5 g/ha: 62.5 g ai/ha, 100=total damage to plant, 0=no damage to plant, read-out: plant damage rating, Barnyardgrass; for pest or weed control at 250 g/ha: 250 g ai/ha, read-out: Barnyardgrass damage rating (100=total damage to plant; 0=no damage to plant)
Summary of the method: (§1)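 Pots of seeds in standard soil were grown for one day in a glasshouse (24/16 °C day/night, 14 h light, 65% humidity), then sprayed with compound in acetone/water 50:50 with 0.5% Tween 20 at 15.625, 62.5 or 250 g/ha. Damage was scored after 13 days on a 0 (none) to 100 (total) scale.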

[2] = tested on: velvetleaf (Abutilon theophrasti); conditions: Abutilon theophrasti, pre-emergence, 312 h, evaluated after 13 days; for pest or weed control at 15.625 g/ha: 15.625 g ai/ha; for pest or weed control at 15.625 g/ha / pest or weed control at 250 g/ha: read-out: Velvetleaf damage rating (100=total damage to plant; 0=no damage to plant); for pest or weed control at 62.5 g/ha: 62.5 g ai/ha, 100=total damage to plant, 0=no damage to plant, read-out: plant damage rating, Velvetleaf; for pest or weed control at 250 g/ha: 250 g ai/ha
Summary of the method: as §1

[3] = tested on: ivy-leaved morning glory (Ipomoea hederacea); conditions: Ipomoea, pre-emergence, 312 h, evaluated after 13 days; for pest or weed control at 15.625 g/ha: 15.625 g ai/ha, read-out: Morning-glory, Ivy-leaved damage rating (100=total damage to plant; 0=no damage to plant); for pest or weed control at 62.5 g/ha: 62.5 g ai/ha, 100=total damage to plant, 0=no damage to plant, read-out: plant damage rating, Morningglory, Ivy-leaved; for pest or weed control at 250 g/ha: 250 g ai/ha, read-out: Morningglory, Ivy-leaved damage rating (100=total damage to plant; 0=no damage to plant)
Summary of the method: as §1

corn (Zea mays) = conditions: Zea mays, pre-emergence, 312 h, evaluated after 13 days; for plant injury at 15.625 g/ha: 15.625 g ai/ha; for plant injury at 15.625 g/ha / plant injury at 250 g/ha: read-out: Corn damage rating (100=total damage to plant; 0=no damage to plant); for plant injury at 62.5 g/ha: 62.5 g ai/ha, 100=total damage to plant, 0=no damage to plant, read-out: plant damage rating, Corn; for plant injury at 250 g/ha: 250 g ai/ha
Summary of the method: as §1

[4] = tested on: redroot pigweed (Amaranthus retroflexus); conditions: Amaranthus retroflexus, pre-emergence, 312 h, evaluated after 13 days; for pest or weed control at 15.625 g/ha: 15.625 g ai/ha; for pest or weed control at 15.625 g/ha / pest or weed control at 250 g/ha: read-out: Pigweed, Redroot damage rating (100=total damage to plant; 0=no damage to plant); for pest or weed control at 62.5 g/ha: 62.5 g ai/ha, 100=total damage to plant, 0=no damage to plant, read-out: plant damage rating, Pigweed, Redroot; for pest or weed control at 250 g/ha: 250 g ai/ha
Summary of the method: as §1

[5] = tested on: giant foxtail (Setaria faberi); conditions: Setaria faberi, pre-emergence, 312 h, evaluated after 13 days; for pest or weed control at 15.625 g/ha: 15.625 g ai/ha; for pest or weed control at 15.625 g/ha / pest or weed control at 250 g/ha: read-out: Foxtail, Giant damage rating (100=total damage to plant; 0=no damage to plant); for pest or weed control at 62.5 g/ha: 62.5 g ai/ha, 100=total damage to plant, 0=no damage to plant, read-out: plant damage rating, Foxtail, Giant; for pest or weed control at 250 g/ha: 250 g ai/ha
Summary of the method: as §1

SMILES	pest or weed control at 15.625 g/ha [1] [%]	pest or weed control at 62.5 g/ha [1] [%]	pest or weed control at 250 g/ha [1] [%]	pest or weed control at 15.625 g/ha [2] [%]	pest or weed control at 62.5 g/ha [2] [%]	pest or weed control at 250 g/ha [2] [%]	pest or weed control at 15.625 g/ha [3] [%]	pest or weed control at 62.5 g/ha [3] [%]	pest or weed control at 250 g/ha [3] [%]	plant injury at 15.625 g/ha (corn (Zea mays)) [%]	plant injury at 62.5 g/ha (corn (Zea mays)) [%]	plant injury at 250 g/ha (corn (Zea mays)) [%]	pest or weed control at 15.625 g/ha [4] [%]	pest or weed control at 62.5 g/ha [4] [%]	pest or weed control at 250 g/ha [4] [%]	pest or weed control at 15.625 g/ha [5] [%]	pest or weed control at 62.5 g/ha [5] [%]	pest or weed control at 250 g/ha [5] [%]
CN1C[C@@H](c2ccc(C(F)(F)F)cc2)[C@H](C(=O)Nc2ccccc2)C1=O (racemic) [Compound 1404]	0	20	70	0	0	0	0	10	20	0	0	0	0	0	20	0	70	80
CN1C[C@H](c2ccc3c(c2)CCO3)[C@@H](C(=O)Nc2cccc(F)c2F)C1=O (racemic) [Compound 1499]	0	80	90	0	0	30	0	0	100	0	0	80		0	0	0	80	80
CN1C[C@H](c2ccc3occc3c2)[C@@H](C(=O)Nc2cccc(F)c2F)C1=O (racemic) [Compound 1500]	30	90	90	0	0	20	0		20	0	0	30	0	0	80	60	80	80
Cc1c(NC(=O)[C@@H]2C(=O)N(C)C[C@H]2c2ccc(C(F)(F)F)cc2)ccc(F)c1F (racemic) [Compound 1502]	20	60	80	0	0	10	0	0	0	0	0	50	0	20	70	60	90	90
Cc1ccncc1NC(=O)[C@@H]1C(=O)N(C)C[C@H]1c1ccc(C(F)(F)F)cc1 (racemic) [Compound 1505]	0	0	20	0	0	0	0		0	0	0	0	0	0	0	0	10	30
CN1C[C@@H](c2ccc(C(F)(F)F)cc2)[C@H](C(=O)Nc2cc(C(F)(F)F)nn2C)C1=O (racemic) [Compound 1510]	0	0	0	0	0	0	0	0	0	0	0	0		0	0	0	0	0
CN1C[C@@H](c2ccc(C(F)(F)F)cc2)[C@H](C(=O)Nc2ccno2)C1=O (racemic) [Compound 1513]	0	0	0	0	0	0	0	0	0	0	0	0	0	0	0	0	0	0
CN1C[C@@H](c2ccc(C(F)(F)F)cc2)[C@H](C(=O)Nc2ncc(Br)cn2)C1=O (racemic) [Compound 1514]	0	0	0	0	0	0	0	0	0	0	0	0	0	0	0	0	0	0
Cc1cscc1NC(=O)[C@@H]1C(=O)N(C)C[C@H]1c1ccc(C(F)(F)F)cc1 (racemic) [Compound 1526]	20	60	80	0	0	0	10		0	0	0	10	0	50	70	30	50	90
